Like-named read-outs stand apart in the source and are kept apart here.

Assay [1] has as its target T1, EGFR with insertion of SVD between D770 and N771 (EGFR ins SVD) (Homo sapiens, UniProt P00533, DUP768-770).
T1 construct: made in house; host or cells: Sf9 insect cells (baculovirus)
Description: Exon20-Mutant-EGFR(D770_N771insSVD) kinase assay (TR-FRET). The note with it: 2 mM ATP, several values per example where printed. It counts as biochemical. For orientation: Time-resolved FRET reads energy transfer from a long-lived donor to a nearby acceptor.

The target of assay [2] is Ba/F3-EGFR-insSVD cells (Homo sapiens, UniProt P00533, DUP768-770, cells depend on it). Put plainly: Ba/F3 cell survival assay (Cell Titer-Glo), EGFR-insSVD. It counts as cell-based. Conditions: without IL-3, with 10 ng/mL EGF, 48 h; read-out: BA/F3 (insSVD) IC50. The protocol: (§1) 293T cells from ATCC were transfected with pBABEpuro expression constructs for WT EGFR or EGFR-insSVD and pCL-Eco packaging vector using Fugene-6 transfection reagent from Promega. Plates were incubated at 37° C. for 48 h. Retrovirus was harvested by filtering the media supernatant through a 0.45 μm filter.
(§2) Ba/F3 cells purchased from DSMZ were grown in RPMI+10% FBS+10 ng/mL IL-3 and infected with filtered retroviral supernatant at a 1:2 dilution. Polybrene was added to a concentration of 8 μg/mL, plates were spun for 90 min, and incubated overnight at 37° C. 2 μg/mL puromycin was added to the infected cells 24 h after infection and cells were continually grown in the presence of puromycin and 10 ng/mL IL-3. Following stably expressing Ba/F3 cell lines were generated: Ba/F3-EGFR-WT, Ba/F3-EGFR-insSVD, (Ba/F3-vector-control).
(§3) For cell survival assays, Ba/F3 cells were grown to a density of 1-2 million cells per mL, spun down and resuspended in media without IL-3, and replated at a concentration 200,000-500,000 cells per mL. The cells ectopically expressing WT EGFR or EGFR-insSVD were plated with 10 ng/mL Millipore Culture grade EGF. The cells ectopically expressing pBABEpuro empty vector were plated with 10 ng/mL IL-3. 2 days later, cells were plated in 50 μL in a 384 well plate at a concentration of 4000 cells per well for cells assayed in the absence of IL-3 and 2000 cells per well for cells assayed in the presence of IL-3. 100 nL of compound was added to each well using a 100 nL pin head, and plates were incubated at 37° C. for 48 h.
(§4) Cell viability was measured by adding 20 μL of Cell Titer-Glo Luminescent Cell Viability Reagent diluted 1:3 in PBS. Plates were sealed with Perkin Elmer Top-Seal, inverted several times to mix, and immediately centrifuged at 1000 rpm for 2 min. Plates were incubated in low light conditions for 8-10 min and luminescence was measured.
In general terms: Cellular ATP, detected with luciferase, serves as a proxy for viable cell number.

The target of assay [3] is Ba/F3-EGFR-WT cells (Homo sapiens, UniProt P00533). Description: Ba/F3 cell survival assay (Cell Titer-Glo), WT EGFR. It counts as cell-based. The note with it: without IL-3, with 10 ng/mL EGF, 48 h; read-out: BA/F3 (wild type) IC50. The protocol: as §1, §2, §3, §4
For assay [4], the target named is T2, Bub1 (Homo sapiens, UniProt O43683).
T2 construct: catalytic domain of human Bub1 (amino acids 704-1085); His6 (N); made in house; host or cells: Hi5 insect cells
Description: Bub1 TR-FRET high ATP kinase assay. It counts as biochemical. The note with it: 2 mM ATP. From the text: Bub1 High ATP Kinase Assay
Bub1-inhibitory activity of compounds of the present invention at a high ATP concentration was quantified employing the Bub1 TR-FRET high ATP kinase assay as described in the following paragraphs.
N-terminally His6-tagged recombinant catalytic domain of human Bub1 (amino acids 704-1085), expressed in insect cells (Hi5) and purified by Ni-NTA affinity chromatography and subsequent size exclusion chromatography, was used as enzyme. As substrate for the kinase reaction the biotinylated peptide biotin-Ahx-[…]—SEQ ID 7 (C-terminus in amid form) was used which can be purchased e.g. form the company Biosyntan (Berlin, Germany).

[5] abbreviates: Bub1 high ATP (2 mM) IC50 [mol/l].
The mark [6] stands for this setting: read-out: Bub1 high ATP (2 mM) IC50 [mol/l].

T2 sequence (O43683 704-1085): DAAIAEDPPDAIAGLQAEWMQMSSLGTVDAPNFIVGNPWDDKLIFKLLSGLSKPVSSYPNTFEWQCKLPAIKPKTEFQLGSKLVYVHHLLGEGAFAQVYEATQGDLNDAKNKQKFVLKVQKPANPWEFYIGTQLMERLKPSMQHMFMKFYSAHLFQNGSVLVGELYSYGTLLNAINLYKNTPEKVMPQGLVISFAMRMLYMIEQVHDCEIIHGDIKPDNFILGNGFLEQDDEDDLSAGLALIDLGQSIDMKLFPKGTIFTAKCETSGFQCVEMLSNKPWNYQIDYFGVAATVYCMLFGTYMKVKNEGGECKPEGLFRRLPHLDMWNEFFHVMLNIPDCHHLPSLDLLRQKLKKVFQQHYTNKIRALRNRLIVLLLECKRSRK
Ba/F3-EGFR-WT cells, sequence (P00533 whole entry, change not shown): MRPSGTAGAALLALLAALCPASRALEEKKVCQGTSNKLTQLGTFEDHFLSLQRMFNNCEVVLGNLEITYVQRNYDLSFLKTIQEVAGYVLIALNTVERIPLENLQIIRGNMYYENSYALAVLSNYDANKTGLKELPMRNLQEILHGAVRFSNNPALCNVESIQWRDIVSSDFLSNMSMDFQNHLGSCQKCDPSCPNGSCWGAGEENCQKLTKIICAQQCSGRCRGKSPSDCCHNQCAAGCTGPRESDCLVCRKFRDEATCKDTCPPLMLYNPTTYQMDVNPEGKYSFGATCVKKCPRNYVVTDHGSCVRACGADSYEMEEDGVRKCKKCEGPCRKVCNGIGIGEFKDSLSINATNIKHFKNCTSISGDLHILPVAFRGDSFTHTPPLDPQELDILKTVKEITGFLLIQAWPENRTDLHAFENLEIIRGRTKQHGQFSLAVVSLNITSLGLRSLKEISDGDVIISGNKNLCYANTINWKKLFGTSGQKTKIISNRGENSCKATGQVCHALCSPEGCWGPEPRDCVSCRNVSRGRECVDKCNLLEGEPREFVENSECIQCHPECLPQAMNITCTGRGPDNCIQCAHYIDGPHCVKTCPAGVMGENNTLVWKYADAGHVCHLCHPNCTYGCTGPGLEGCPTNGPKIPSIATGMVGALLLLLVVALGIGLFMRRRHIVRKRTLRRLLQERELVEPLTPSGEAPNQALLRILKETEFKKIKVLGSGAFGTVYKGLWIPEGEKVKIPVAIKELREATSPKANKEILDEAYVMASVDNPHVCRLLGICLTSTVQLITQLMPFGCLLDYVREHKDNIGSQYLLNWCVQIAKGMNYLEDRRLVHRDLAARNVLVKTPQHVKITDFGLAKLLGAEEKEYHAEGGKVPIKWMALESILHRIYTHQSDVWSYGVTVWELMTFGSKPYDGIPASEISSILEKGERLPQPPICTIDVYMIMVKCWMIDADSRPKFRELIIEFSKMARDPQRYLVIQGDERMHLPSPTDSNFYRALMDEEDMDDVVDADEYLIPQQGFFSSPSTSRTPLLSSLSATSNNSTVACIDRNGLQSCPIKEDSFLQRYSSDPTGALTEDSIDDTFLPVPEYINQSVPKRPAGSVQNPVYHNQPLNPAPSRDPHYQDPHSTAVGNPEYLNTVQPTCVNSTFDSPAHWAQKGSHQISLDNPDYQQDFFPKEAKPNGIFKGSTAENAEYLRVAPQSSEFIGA
Ba/F3-EGFR-insSVD cells, sequence (P00533 with tags, fused parts or gaps DUP768-770): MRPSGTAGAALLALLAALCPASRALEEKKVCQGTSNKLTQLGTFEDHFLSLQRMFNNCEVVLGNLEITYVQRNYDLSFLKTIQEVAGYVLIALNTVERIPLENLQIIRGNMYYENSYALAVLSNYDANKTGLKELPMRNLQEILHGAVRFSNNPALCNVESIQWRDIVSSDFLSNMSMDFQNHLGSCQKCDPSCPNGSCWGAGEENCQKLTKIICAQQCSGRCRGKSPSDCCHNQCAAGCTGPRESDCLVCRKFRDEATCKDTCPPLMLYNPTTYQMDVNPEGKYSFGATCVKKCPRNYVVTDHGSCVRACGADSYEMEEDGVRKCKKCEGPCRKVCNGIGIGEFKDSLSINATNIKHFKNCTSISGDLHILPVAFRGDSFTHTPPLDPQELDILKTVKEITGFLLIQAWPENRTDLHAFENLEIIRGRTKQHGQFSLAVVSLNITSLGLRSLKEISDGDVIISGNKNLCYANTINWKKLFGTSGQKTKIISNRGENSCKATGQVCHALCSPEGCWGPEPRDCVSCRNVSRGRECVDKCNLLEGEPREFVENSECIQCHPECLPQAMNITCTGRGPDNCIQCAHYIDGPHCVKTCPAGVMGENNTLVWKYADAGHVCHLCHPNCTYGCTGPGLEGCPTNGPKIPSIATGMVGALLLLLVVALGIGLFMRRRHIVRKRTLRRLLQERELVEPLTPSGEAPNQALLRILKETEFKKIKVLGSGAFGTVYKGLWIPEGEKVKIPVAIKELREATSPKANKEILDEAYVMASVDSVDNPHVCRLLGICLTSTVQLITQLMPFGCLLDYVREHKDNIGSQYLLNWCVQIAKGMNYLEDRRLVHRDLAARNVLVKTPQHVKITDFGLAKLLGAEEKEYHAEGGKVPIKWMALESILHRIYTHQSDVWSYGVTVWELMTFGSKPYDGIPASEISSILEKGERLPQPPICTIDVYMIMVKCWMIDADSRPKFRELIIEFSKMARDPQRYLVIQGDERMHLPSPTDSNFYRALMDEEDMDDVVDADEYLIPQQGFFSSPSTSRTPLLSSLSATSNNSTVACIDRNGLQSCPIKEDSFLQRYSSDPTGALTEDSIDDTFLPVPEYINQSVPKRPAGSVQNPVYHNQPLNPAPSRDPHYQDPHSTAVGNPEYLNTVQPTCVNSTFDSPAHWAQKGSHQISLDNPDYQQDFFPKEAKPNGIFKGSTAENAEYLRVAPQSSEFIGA
T1 sequence (P00533 with tags, fused parts or gaps DUP768-770): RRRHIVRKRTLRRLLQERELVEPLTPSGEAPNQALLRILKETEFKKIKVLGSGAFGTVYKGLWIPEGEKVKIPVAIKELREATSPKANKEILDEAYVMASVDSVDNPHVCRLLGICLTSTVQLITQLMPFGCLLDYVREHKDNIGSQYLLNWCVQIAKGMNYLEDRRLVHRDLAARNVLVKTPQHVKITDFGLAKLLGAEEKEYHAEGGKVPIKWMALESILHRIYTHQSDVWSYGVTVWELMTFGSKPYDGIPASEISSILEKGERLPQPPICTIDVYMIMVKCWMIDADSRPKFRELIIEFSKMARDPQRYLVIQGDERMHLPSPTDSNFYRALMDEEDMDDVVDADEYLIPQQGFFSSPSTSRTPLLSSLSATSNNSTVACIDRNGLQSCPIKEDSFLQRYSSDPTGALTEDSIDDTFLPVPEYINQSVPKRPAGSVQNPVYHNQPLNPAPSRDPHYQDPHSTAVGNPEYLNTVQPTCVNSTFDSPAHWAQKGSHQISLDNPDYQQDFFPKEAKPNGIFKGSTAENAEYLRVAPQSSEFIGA

For `COc1c(F)cccc1Nc1c(-c2ccncc2OC[C@@H]2CN(CC(F)F)CCO2)[nH]c2c1C(=O)NCC2` [Example 22, 2-(3-{[(2S)-4-(2,2-difluoroethyl)morpholin-2-yl]methoxy}pyridin-4-yl)-3-(3-fluoro-2-methoxyanilino)-1,5,6,7-tetrahydro-4H-pyrrolo[3,2-c]pyridin-4-one], the “mutEGFR (D770_N771insSVD) kinase assay IC50” value (shortened to “mutEGFR”) in assay [1] is 0.153 nM. Moreover, the GI50 in assay [2] was found to be 41.9 nM; in assay [3] it was 544 nM. Further, the IC50 in assay [4] (setting [5]) was > 20000 nM.

Take `CCc1c(F)cccc1Nc1c(-c2ccncc2OCC2COCCO2)[nH]c2c1C(=O)NCC2` (single isomer, unassigned) [Example 67, 2-(3-{[1,4-dioxan-2-yl]methoxy}pyridin-4-yl)-3-(2-ethyl-3-fluoroanilino)-1,5,6,7-tetrahydro-4H-pyrrolo[3,2-c]pyridin-4-one]: the “mutEGFR” value in assay [1] was determined as 0.217 nM. In addition, the GI50 in assay [2] stood at 29 nM; in assay [3], 198 nM. Moreover, in assay [4] (setting [5]), the IC50 was 2080 nM.

Consider `COc1c(Cl)cc(F)cc1Nc1c(-c2ccncc2OCC2COCCO2)[nH]c2c1C(=O)NCC2` (stereo not drawn) [Example 19, 3-(3-chloro-5-fluoro-2-methoxyanilino)-2-(3-{[1,4-dioxan-2-yl]methoxy}pyridin-4-yl)-1,5,6,7-tetrahydro-4H-pyrrolo[3,2-c]pyridin-4-one], for which the “mutEGFR” value in assay [1] came out at 0.113 nM. Further, the figures for the GI50 in assay [2] and in assay [3] were 29.1 nM and 532 nM, respectively. Besides, the IC50 in assay [4] (setting [5]) amounted to 11400 nM.

`COc1c(Cl)cccc1Nc1c(-c2ccncc2OCC2CN(C)CCO2)[nH]c2c1C(=O)NCC2` (stereo not drawn) [Example 15, 3-(3-chloro-2-methoxyanilino)-2-{3-[(4-methylmorpholin-2-yl)methoxy]pyridin-4-yl}-1,5,6,7-tetrahydro-4H-pyrrolo[3,2-c]pyridin-4-one]: the “mutEGFR” value in assay [1] is 0.151 nM. The GI50 in assay [2] was 15.3 nM; in assay [3], 426 nM. The IC50 in assay [4] (setting [5]) is > 20000 nM.

On to `COc1c(Cl)cccc1Nc1c(-c2ccncc2O[C@H](C)C2COCCO2)[nH]c2c1C(=O)NCC2` (single isomer, unassigned) [Example 60], for which the “mutEGFR” value in assay [1] was determined as 0.305 nM. The GI50 in assay [2] was 52.7 nM; in assay [3], 946 nM. In addition, the IC50 in assay [4] (setting [5]) amounted to 16400 nM.

With `CCc1c(F)cccc1Nc1c(-c2ccncc2OCC2COC(C)(C)CO2)[nH]c2c1C(=O)NCC2` (single isomer, unassigned) [Example 69, 2-(3-{[5,5-dimethyl-1,4-dioxan-2-yl]methoxy}pyridin-4-yl)-3-(2-ethyl-3-fluoroanilino)-1,5,6,7-tetrahydro-4H-pyrrolo[3,2-c]pyridin-4-one], the “mutEGFR” value in assay [1] came to 0.233 nM. The GI50 amounted to 7.17 nM in assay [2] and 312 nM in assay [3]. The IC50 in assay [4] (setting [5]) was > 20000 nM.

With `COc1c(F)cccc1Nc1c(-c2ccncc2OCC2COC(C)(C)CO2)[nH]c2c1C(=O)NCC2` (single isomer, unassigned) [Example 33, 2-(3-{[5,5-dimethyl-1,4-dioxan-2-yl]methoxy}pyridin-4-yl)-3-(3-fluoro-2-methoxyanilino)-1,5,6,7-tetrahydro-4H-pyrrolo[3,2-c]pyridin-4-one], in assay [1], the “mutEGFR” value was found to be 0.213 nM. The GI50 in assay [2] was 102 nM; in assay [3], 557 nM. Further, the IC50 in assay [4] (setting [5]) is > 20000 nM.

Regarding `COc1c(Cl)cccc1Nc1c(-c2ccncc2OCC2CN(C)CCO2)[nH]c2c1C(=O)NCC2` (single isomer, unassigned) [Example 17, 3-(3-chloro-2-methoxyanilino)-2-(3-{[4-methylmorpholin-2-yl]methoxy}pyridin-4-yl)-1,5,6,7-tetrahydro-4H-pyrrolo[3,2-c]pyridin-4-one], the “mutEGFR” value in assay [1] turned out to be 0.156 nM. The GI50 in assay [2] was determined as 9.53 nM; in assay [3] it was 231 nM. Also, the IC50 in assay [4] (setting [6]) was > 20000 nM.

Turning to `COc1c(Cl)cccc1Nc1c(-c2ccncc2O[C@@H](C)C2COCCO2)[nH]c2c1C(=O)NCC2` (single isomer, unassigned) [Example 59, 3-(3-chloro-2-methoxyanilino)-2-{3-[(1 S)-1-(1,4-dioxan-2-yl)ethoxy]pyridin-4-yl}-1,5,6,7-tetrahydro-4H-pyrrolo[3,2-c]pyridin-4-one], the “mutEGFR” value in assay [1] was 0.235 nM. Further, the GI50 in assay [2] was 18.6 nM; in assay [3], 336 nM. This molecule returned an IC50 in assay [4] (setting [5]) of 12200 nM.

Turning to `COc1c(Cl)cccc1Nc1c(-c2ccncc2OC(C)C2CN(C)CCO2)[nH]c2c1C(=O)NCC2` (single isomer, unassigned) [Example 74, 3-(3-chloro-2-methoxyanilino)-2-[3-({1-[-4-methylmorpholine-2-yl]ethyl}oxy)pyridin-4-yl]-1,5,6,7-tetrahydro-4H-pyrrolo[3,2-c]pyridin-4-one], the “mutEGFR” value in assay [1] is 0.661 nM. Also, the figures for the GI50 in assay [2] and in assay [3] were 51.1 nM and 828 nM, respectively. The IC50 in assay [4] (setting [6]) was > 20000 nM.

On to `COc1c(Cl)cccc1Nc1c(-c2ccncc2OC(C)C2CN(C)CCO2)[nH]c2c1C(=O)NCC2` (single isomer, unassigned) [Example 72, 3-(3-chloro-2-methoxyanilino)-2-[3-({1-[4-methylmorpholin-2-yl]ethyl}oxy)pyridin-4-yl]-1,5,6,7-tetrahydro-4H-pyrrolo[3,2-c]pyridin-4-one], for which the “mutEGFR” value in assay [1] amounted to 1.41 nM. For the same molecule, the GI50 was 67.3 nM in assay [2] and 957 nM in assay [3]. In assay [4] (setting [5]), the IC50 is > 20000 nM.

Consider `COc1c(Cl)cc(F)cc1Nc1c(-c2ccncc2OC[C@@H]2CN(C)CCO2)[nH]c2c1C(=O)NCC2` [Example 27, 3-(3-chloro-5-fluoro-2-methoxyanilino)-2-(3-{[(2S)-4-methylmorpholin-2-yl]methoxy}pyridin-4-yl)-1,5,6,7-tetrahydro-4H-pyrrolo[3,2-c]pyridin-4-one], for which, in assay [1], the “mutEGFR” value worked out at 0.118 nM. The GI50 was 16.9 nM in assay [2] and 502 nM in assay [3]. Besides, the IC50 in assay [4] (setting [5]) is > 20000 nM.

As for `COc1c(Cl)cccc1Nc1c(-c2ccncc2OCC2CN(C)CCO2)[nH]c2c1C(=O)NCC2` (single isomer, unassigned) [Example 16, 3-(3-chloro-2-methoxyanilino)-2-(3-{[4-methylmorpholin-2-yl]methoxy}pyridin-4-yl)-1,5,6,7-tetrahydro-4H-pyrrolo[3,2-c]pyridin-4-one], the “mutEGFR” value in assay [1] was determined as 0.228 nM. The GI50 in assay [2] worked out at 126 nM; in assay [3], 1050 nM. The IC50 in assay [4] (setting [5]) is > 20000 nM.

On to `CCc1c(F)cccc1Nc1c(-c2ccncc2OCC2COC(C)(C)CO2)[nH]c2c1C(=O)NCC2` (single isomer, unassigned) [Example 70, 2-(3-{[5,5-dimethyl-1,4-dioxan-2-yl]methoxy}pyridin-4-yl)-3-(2-ethyl-3-fluoroanilino)-1,5,6,7-tetrahydro-4H-pyrrolo[3,2-c]pyridin-4-one], for which the “mutEGFR” value in assay [1] was 0.168 nM. For the same molecule, the figures for the GI50 in assay [2] and in assay [3] were 67.9 nM and 714 nM, respectively. For the same molecule, the IC50 in assay [4] (setting [6]) is > 20000 nM.

For `CCc1c(F)cccc1Nc1c(-c2ccncc2OCC2COC(C)(C)CO2)[nH]c2c1C(=O)NCC2` (stereo not drawn) [Example 68, 2-(3-{[5,5-dimethyl-1,4-dioxan-2-yl]methoxy}pyridin-4-yl)-3-(2-ethyl-3-fluoroanilino)-1,5,6,7-tetrahydro-4H-pyrrolo[3,2-c]pyridin-4-one], the “mutEGFR” value in assay [1] turned out to be 0.267 nM. Also, the results for the GI50 in assay [2] and in assay [3] were 37.3 nM and 644 nM, respectively. Besides, in assay [4] (setting [5]), the IC50 is > 20000 nM.
